This is an account of results in article PMC2825274 (PLoS ONE, 2010).

What is called EC50 is the concentration that produces a half-maximal response. Low readings indicate greater potency, high ones weaker potency.

Values after ≈ are worked out from the molar mass of the structure shown. Values joined by “and” are separate entries in the source; they are usually repeats but may differ in a detail not shown here. Equal values may be shown once. “Also recorded” adds a separate entry of the source. Read-outs that look alike come from different tables or passages of the source. A value given as a limit tells only on which side of the number the result lay.

In data set [1] the test system is 2009 H1N1 influenza strains A/California/04/09 (CA04), A/California/05/09 (CA05) and A/California/10/09 (CA10). Briefly: microbe, parasite or virus in culture. It is filed as cell-based, influenza A virus. To be noted: for EC50: Influenza A virus, H1N1, MDCK.
The subject of data set [2] is A/New Caledonia/20/99 (H1N1) (NC20) susceptible. Kind of data set: microbe, parasite or virus in culture. It is filed as cell-based, influenza A virus.
For data set [3], the system named is influenza A/California/04/09 (H1N1) (CA04). Kind of data set: microbe, parasite or virus in culture. It is filed as cell-based, influenza A virus. The note with it: for EC50: Influenza A virus, H1N1, MDCK, 72 h.
For data set [4], the system named is influenza A/California/05/09 (H1N1) (CA05). Briefly: microbe, parasite or virus in culture. It is filed as cell-based, influenza A virus. To be noted: for EC50: Influenza A virus, H1N1, MDCK, 72 h.
Data set [5] relates to MDCK cells.

With Oseltamivir carboxylate, the “inhibition of virus-induced CPE as single agent” value (from here on “inhibition of virus-induced CPE”) in data set [1] is on record as “concentration-dependent inhibition of cytopathic effect”. The compound also yielded an EC50 in data set [2] of 0.20 µg/mL.

Turning to `NC12CC3CC(CC(C3)C1)C2` [Amantadine], in data set [3], the “amantadine concentration with significant contribution to the synergy of the TCAD regimen” value stood at 3.2 µg/mL; the “contribution to the total synergy of the TCAD regimen” value worked out at 39%; the EC50 was 85 µM and 16 µg/mL. Moreover, in data set [1], the “antiviral activity as a single agent” value is reported as “no significant antiviral activity”; the “fold reduction in susceptibility” value was over 250 fold; the “fold reduction of single-agent activity” value is 100 fold; the concentration giving a half-maximal response (EC50) is 16 µg/mL to 20 µg/mL and 85 µM to 106 µM. In addition, in data set [4], the “amantadine concentration with significant contribution to the synergy of the TCAD regimen” value is at least 0.1 µg/mL; the “contribution to the total synergy of the TCAD regimen” value is given as 24%; the EC50 was 106 µM and 20 µg/mL. In addition, in data set [2] (Influenza A virus, H1N1, MDCK), it took 0.22 µg/mL (≈ 1.45 µM) to reach a half-maximal effect (EC50).

Turning to `CC(=O)N[C@H]1[C@H]([C@H](O)[C@H](O)CO)OC(C(=O)O)=C[C@@H]1N=C(N)N` [Zanamivir], the concentration giving a half-maximal response (EC50) is 350 nM and 0.12 µg/mL in data set [3]; 230 nM and 0.078 µg/mL in data set [4]. Moreover, in data set [1], the “inhibition of virus-induced CPE” value is “concentration-dependent inhibition of cytopathic effect”. Besides, the TC50 in data set [5] (dog) is reported as over 100 µg/mL.

For `NC(=O)c1ncn([C@@H]2O[C@H](CO)[C@@H](O)[C@H]2O)n1` [Ribavirin], the EC50 in data set [3] is 28 µM and 7 µg/mL; in data set [4] it was 23 µM and 5.6 µg/mL; in data set [2] (Influenza A virus, H1N1, MDCK), 3.1 µg/mL (≈ 12.7 µM). In data set [1], the “inhibition of virus-induced CPE” value is on record as “concentration-dependent inhibition of cytopathic effect”.

On to `CCC(CC)[C@H](NC(C)=O)[C@@H]1[C@H](O)[C@@H](C(=O)O)C[C@H]1N=C(N)N` [Peramivir], for which the “inhibition of virus-induced CPE” value in data set [1] was “concentration-dependent inhibition of cytopathic effect”. For the same compound, the TC50 in data set [5] was over 100 µg/mL.

For the compound `CC(N)C12CC3CC(CC(C3)C1)C2` (stereo not drawn) [Rimantadine, rimantadine], the EC50 was > 51 µM and > 11 µg/mL in data set [3]; > 12 µg/mL and > 55 µM in data set [1]; > 55 µM and > 12 µg/mL in data set [4]. Moreover, the “inhibition of virus-induced CPE” value in data set [1] is “did not produce inhibition; also recorded: no activity”.
